According to patent US5817455A, “Method for in vitro inactivation of RNase S” (Novagen, Inc., priority 1996, dated 1998):

Tests used:
S-protein = settings: cited from earlier work
Ribonuclease S = Ribonuclease S activity, degradation of yeast polymeric RNA (absorbance at 255 nm); type: biochemical, bovine; settings: for effect on RNase S activity (in words): consecutive addition to S-protein + bS15 reaction mix; for Activity: initial velocity relative to S-protein (50 ng) plus S15 (10 μg) = 100%, consecutive addition of S-protein (50 ng), bS15 (approx. 5 μg), streptavidin (10 μg), S15 (5 μg), 75 ug/mL yeast RNA, pH 7.0, 25° C., 2 minutes
Method: Ribonuclease S activity was measured in terms of degradation of yeast polymeric RNA. Degradation was monitored as an increase in absorbance at 255 nm of the reaction cocktail. The reaction cocktail included 50 mM imidazole.HCl buffer, pH 7.0, 0.1 M NaCl, and 75 ug/mL yeast RNA, in a volume of 800 uL. The change in absorbance was monitored at 25° C. for 2 minutes following the consecutive addition of S-protein (50 ng), bS15 (approx. 5 μg), streptavidin (10 μg), and authentic S15 (5 μg).
For comparison, the degradative activity in a reaction mix containing S-protein (50 ng) plus S15 (10 μg) is defined to be 100%. […] The initial velocity of each reaction was determined from the initial slope of a plot of absorbance v. time.

Substance	binding to S-protein compared with intact S-peptide (S-protein; truncated S-peptide, first 15 residues)	effect on RNase S activity (in words) (Ribonuclease S)	Activity (Ribonuclease S) [%]	Kd (S-protein; S-peptide and S-protein, read-out: dissociation constant) [nM]
S15: truncated S-peptide formed from the first 15 residues of the S-peptide, SEQ ID NO:1 (KETAAAKFERQHMDS)	binds equally well	RNase S activity could be reconstituted	40	
S-peptide: residues 1-20 of RNase A, subtilisin cleavage product				1
streptavidin		sufficient to inactivate RNase S	< 0.01	
